According to patent US20260015350A1, “AZAQUINAZOLINE PAN-KRAS INHIBITORS” (Mirati Therapeutics, Inc., priority 2022, published 2026):

Experiments:
[1] = tested on: KRas-mediated phosphorylation of ERK in MKN1 cells; assay: Inhibition of KRas-mediated phosphorylation of ERK (Cisbio HTRF pERK), MKN1 cells; assay type: cell-based; details: Homo sapiens, MKN-1
Outline: (§1)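 Day 1 seeding: 6,000 cells per well, RPMI/10% FBS, left overnight at 37° C. with 5% CO2. Plates then stood covered for 4 h at room temperature prior to HTRF detection of pERK.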

KRas^G12R = target: T1, KRas^G12R (Homo sapiens, UniProt P01116, G12R); assay: KRas binding assay (TR-FRET tracer displacement), KRas G12R
T1 construct: Biotinylated KRas (corresponding to amino acids 1-169, produced at Accelegan Inc.); biotin (biotinylated); purchased Accelegan Inc

KRas^G13D = target: T2, KRas^G13D (Homo sapiens, UniProt P01116, G13D); assay: KRas binding assay (TR-FRET tracer displacement), KRas G13D; details: single point, 10 nM compound, TR-FRET
T2 construct: Biotinylated KRas (corresponding to amino acids 1-169, produced at Accelegan Inc.); biotin (biotinylated); purchased Accelegan Inc

KRas^G12A = target: T3, KRas^G12A (Homo sapiens, UniProt P01116, G12A); assay: KRas binding assay (TR-FRET tracer displacement), KRas G12A; details: single point, 10 nM compound, TR-FRET
T3 construct: Biotinylated KRas (corresponding to amino acids 1-169, produced at Accelegan Inc.); biotin (biotinylated); purchased Accelegan Inc

[2] = tested on: KRas-mediated phosphorylation of ERK in A549 cells; assay: Inhibition of KRas-mediated phosphorylation of ERK (Cisbio HTRF pERK), A549 cells; assay type: cell-based; details: Homo sapiens, HTRF pERK
Outline: (§2)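 Phosphorylated ERK was quantified by HTRF using d2-conjugate and Cryptate antibodies added to lysates for 2 hrs at room temperature.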

KRas^G12S = target: T4, KRas^G12S (Homo sapiens, UniProt P01116, G12S); assay: KRas binding assay (TR-FRET tracer displacement), KRas G12S; details: single point, 10 nM compound, TR-FRET
T4 construct: Biotinylated KRas (corresponding to amino acids 1-169, produced at Accelegan Inc.); biotin (biotinylated); purchased Accelegan Inc

KRas^WT = target: T5, KRas^WT (Homo sapiens, UniProt P01116); assay: KRas binding assay (TR-FRET tracer displacement), KRas WT; details: single point, 10 nM compound, TR-FRET
T5 construct: Biotinylated KRas (corresponding to amino acids 1-169, produced at Accelegan Inc.); biotin (biotinylated); purchased Accelegan Inc

KRas^Q61H = target: T6, KRas^Q61H (Homo sapiens, UniProt P01116, Q61H); assay: KRas binding assay (TR-FRET tracer displacement), KRas Q61H; details: single point, 10 nM compound, TR-FRET
T6 construct: Biotinylated KRas (corresponding to amino acids 1-169, produced at Accelegan Inc.); biotin (biotinylated); purchased Accelegan Inc

[3] = tested on: KRas-mediated phosphorylation of ERK in H460 cells; assay: Inhibition of KRas-mediated phosphorylation of ERK (Cisbio HTRF pERK), H460 cells; assay type: cell-based; details: Homo sapiens; for inhibition at 0.1 µM: NCI-H460, 3 h, single point, 100 nM compound, 3 hrs; for IC50: NCI-H460, HTRF pERK
Outline: (§3)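 6,000 cells/well; cpd 10 uM top, 3-fold x10, 0.8% DMSO final; 3 hr incubation; Min ctrl Trametinib 0.2 uM; lysis 40 min 4° C shaking; d2 + Cryptate Ab mix, 2 hr RT; HTRF read.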

[4] = tested on: KRas-mediated phosphorylation of ERK in AsPC-1 cells; assay: Inhibition of KRas-mediated phosphorylation of ERK (Cisbio HTRF pERK), AsPC-1 cells; assay type: cell-based; details: Homo sapiens, ASPC1, AsPC-1 cells; HTRF pERK
Outline: as §3

[5] = tested on: KRas-mediated phosphorylation of ERK in H727 cells; assay: Inhibition of KRas-mediated phosphorylation of ERK (Cisbio HTRF pERK), H727 cells; assay type: cell-based; details: Homo sapiens, NCI-H727, H727 cells; HTRF pERK
Outline: as §3

KRas^G12V = target: T7, KRas^G12V (Homo sapiens, UniProt P01116, G12V); assay: KRas binding assay (TR-FRET tracer displacement), KRas G12V
T7 construct: Biotinylated KRas (corresponding to amino acids 1-169, produced at Accelegan Inc.); biotin (biotinylated); purchased Accelegan Inc

KRas^G12D = target: T8, KRas^G12D (Homo sapiens, UniProt P01116, G12D); assay: KRas binding assay (TR-FRET tracer displacement), KRas G12D
T8 construct: Biotinylated KRas (corresponding to amino acids 1-169, produced at Accelegan Inc.); biotin (biotinylated); purchased Accelegan Inc

[6] = tested on: KRas-mediated phosphorylation of ERK in PSN1 cells; assay: Inhibition of KRas-mediated phosphorylation of ERK (Cisbio HTRF pERK), PSN1 cells; assay type: cell-based; details: Homo sapiens
Outline: as §1

KRas^G12C = target: T9, KRas^G12C (Homo sapiens, UniProt P01116, G12C); assay: KRas binding assay (TR-FRET tracer displacement), KRas G12C; details: single point, 10 nM compound, TR-FRET
T9 construct: Biotinylated KRas (corresponding to amino acids 1-169, produced at Accelegan Inc.); biotin (biotinylated); purchased Accelegan Inc

[7] = tested on: KRas-mediated phosphorylation of ERK in HCT116 cells; assay: Inhibition of KRas-mediated phosphorylation of ERK (Cisbio HTRF pERK), HCT116 cells; assay type: cell-based; details: Homo sapiens; for inhibition at 0.1 µM: HCT-116, 3 h, single point, 100 nM compound, 3 hrs; for IC50: HCT-116, HTRF pERK
Outline: as §2

T2 sequence (P01116 1-169 isoform P01116-2 G13D): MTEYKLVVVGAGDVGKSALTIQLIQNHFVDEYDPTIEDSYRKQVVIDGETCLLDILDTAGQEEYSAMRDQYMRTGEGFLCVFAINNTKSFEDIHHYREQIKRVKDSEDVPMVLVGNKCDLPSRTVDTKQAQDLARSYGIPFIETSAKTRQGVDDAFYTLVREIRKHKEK
T1 sequence (P01116 1-169 isoform P01116-2 G12R): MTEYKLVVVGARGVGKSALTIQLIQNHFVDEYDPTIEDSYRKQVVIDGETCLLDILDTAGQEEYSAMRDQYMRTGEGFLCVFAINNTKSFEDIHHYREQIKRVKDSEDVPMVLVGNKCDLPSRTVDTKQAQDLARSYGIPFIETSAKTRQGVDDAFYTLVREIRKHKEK
T4 sequence (P01116 1-169 isoform P01116-2 G12S): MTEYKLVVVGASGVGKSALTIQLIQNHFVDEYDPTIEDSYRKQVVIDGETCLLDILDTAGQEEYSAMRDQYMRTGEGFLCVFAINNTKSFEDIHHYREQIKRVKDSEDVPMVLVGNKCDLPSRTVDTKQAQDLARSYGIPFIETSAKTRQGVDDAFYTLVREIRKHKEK
T7 sequence (P01116 1-169 isoform P01116-2 G12V): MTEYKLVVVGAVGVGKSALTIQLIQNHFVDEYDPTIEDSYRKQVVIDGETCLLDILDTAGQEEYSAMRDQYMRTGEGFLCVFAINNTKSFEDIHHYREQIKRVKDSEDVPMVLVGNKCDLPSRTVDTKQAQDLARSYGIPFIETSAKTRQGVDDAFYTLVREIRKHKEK
T3 sequence (P01116 1-169 isoform P01116-2 G12A): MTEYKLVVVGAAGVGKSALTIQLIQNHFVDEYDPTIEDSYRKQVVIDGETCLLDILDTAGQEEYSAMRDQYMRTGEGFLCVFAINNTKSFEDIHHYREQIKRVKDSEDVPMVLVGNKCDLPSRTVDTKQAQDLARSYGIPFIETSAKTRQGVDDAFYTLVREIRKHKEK
T9 sequence (P01116 1-169 isoform P01116-2 G12C): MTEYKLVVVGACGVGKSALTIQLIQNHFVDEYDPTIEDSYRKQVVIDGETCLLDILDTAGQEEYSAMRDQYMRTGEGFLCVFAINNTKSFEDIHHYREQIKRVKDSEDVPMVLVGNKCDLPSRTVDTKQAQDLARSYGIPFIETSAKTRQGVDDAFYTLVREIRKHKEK
T5 sequence (P01116 1-169 isoform P01116-2): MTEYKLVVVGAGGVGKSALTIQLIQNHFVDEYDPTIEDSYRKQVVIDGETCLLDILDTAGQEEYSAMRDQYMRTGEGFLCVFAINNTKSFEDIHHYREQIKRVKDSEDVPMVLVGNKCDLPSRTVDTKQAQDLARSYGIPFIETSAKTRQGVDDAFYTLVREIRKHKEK
T6 sequence (P01116 1-169 isoform P01116-2 Q61H): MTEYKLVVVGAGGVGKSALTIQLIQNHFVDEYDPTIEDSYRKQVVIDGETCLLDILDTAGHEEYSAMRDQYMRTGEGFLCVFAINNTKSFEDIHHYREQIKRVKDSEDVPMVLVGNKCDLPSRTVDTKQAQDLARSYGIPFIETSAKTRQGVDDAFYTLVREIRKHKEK
T8 sequence (P01116 1-169 isoform P01116-2 G12D): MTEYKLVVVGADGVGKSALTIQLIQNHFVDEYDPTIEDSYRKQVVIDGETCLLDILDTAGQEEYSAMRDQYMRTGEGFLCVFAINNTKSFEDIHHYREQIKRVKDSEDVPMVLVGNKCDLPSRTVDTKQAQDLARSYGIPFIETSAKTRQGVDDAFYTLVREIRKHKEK

Row | IC50 [1] | IC50 (KRas^G12R) | inhibition at 0.01 µM (KRas^G13D) | inhibition at 0.01 µM (KRas^G12A) | IC50 [2] | inhibition at 0.01 µM (KRas^G12S) | inhibition at 0.01 µM (KRas^WT) | inhibition at 0.01 µM (KRas^Q61H) | IC50 [4] | IC50 [5] | IC50 (KRas^G12V) | IC50 (KRas^G12D) | IC50 [6] | inhibition at 0.01 µM (KRas^G12C) | IC50 [3] | IC50 [7] | Compound | inhibition at 0.1 µM [3] | inhibition at 0.1 µM [7]
1 | 25 nM | 4 nM | 86% | 74% | 47 nM | 83% | 80% | 88% | 22 nM | 49 nM | 3 nM | 2 nM | 2610 nM | 88% |  |  | CCc1c(F)ccc2cc(O)cc(-c3ncc4c(N5CCOCC(C)(O)C5)nc(OCC56CCCN5[C@H](COC(=O)N(C)C)CC6)nc4c3F)c12 (stereo in doubt) [Example 710, ((3S,7aR)-7a-(((7-(8-ethyl-7-fluoro-3-hydroxynaphthalen-1-yl)-8-fluoro-4-(6-hydroxy-6-methyl-1,4-oxazepan-4-yl)pyrido[4,3-d]pyrimidin-2-yl)oxy)methyl)hexahydro-1H-pyrrolizin-3-yl)methyl dimethylcarbamate] | 66% | 37%
2 | 35 nM | 3 nM | 69% | 59% | 496 nM | 81% | 62% | 67% | 76 nM | 217 nM | 3 nM | < 2 nM | > 10000 nM | 76% | 438 nM | 1060 nM | CCc1c(F)ccc2cc(O)cc(-c3ncc4c(N5CCCn6nncc6C5)nc(OC[C@@]56CCCN5C[C@H](F)C6)nc4c3F)c12 [Example 562, 4-(4-(7,8-dihydro-4H-[1,2,3]triazolo[1,5-a][1,4]diazepin-5(6H)-yl)-8-fluoro-2-(((2R,7aS)-2-fluorohexahydro-1H-pyrrolizin-7a-yl)methoxy)pyrido[4,3-d]pyrimidin-7-yl)-5-ethyl-6-fluoronaphthalen-2-ol] |  | 
3 | 2 nM | < 2 nM | 98% | 94% | 19 nM | 98% | 97% | 98% | 62 nM | 33 nM | < 2 nM | < 2 nM | 1380 nM | 96% | 17 nM | 29 nM | CCc1c(F)ccc2cc(O)cc(-c3ncc4c(N5C[C@@H]6C[C@H](C5)[C@H](O)[C@@H]6O)nc(OC[C@@]56CCCN5C[C@H](F)C6)nc4c3F)c12 [Example 568, (1R,5S,6R,7S)-3-(7-(8-ethyl-7-fluoro-3-hydroxynaphthalen-1-yl)-8-fluoro-2-(((2R,7aS)-2-fluorohexahydro-1H-pyrrolizin-7a-yl)methoxy)pyrido[4,3-d]pyrimidin-4-yl)-3-azabicyclo[3.2.1]octane-6,7-diol] |  | 
4 | 25 nM | 4 nM | 93% | 91% | 65 nM | 93% | 91% | 90% | 94 nM | 85 nM | 3 nM | 6 nM | 3770 nM | 93% |  |  | CCc1c(F)ccc2cc(O)cc(-c3ncc4c(N5CCC(O)C(F)(F)CC5)nc(OC[C@@]56CCCN5C[C@H](F)C6)nc4c3F)c12 (stereo partly drawn) [Example 586, 1-(7-(8-ethyl-7-fluoro-3-hydroxynaphthalen-1-yl)-8-fluoro-2-(((2R,7aS)-2-fluorotetrahydro-1H-pyrrolizin-7a(5H)-yl)methoxy)pyrido[4,3-d]pyrimidin-4-yl)-5,5-difluoroazepan-4-ol] | 56% | 42%
5 | 17 nM | < 2 nM | 84% | 77% | 141 nM | 86% | 82% | 88% | 87 nM | 68 nM | < 2 nM | 2 nM | 4150 nM | 91% | 72 nM | 188 nM | CCc1c(F)ccc2cc(O)cc(-c3ncc4c(N5CCCC6(CC(O)C6)C5)nc(OCC5(CN(C)C)CC5)nc4c3F)c12 (centres unmarked) [Example 698, 6-(2-((1-((dimethylamino)methyl)cyclopropyl)methoxy)-7-(8-ethyl-7-fluoro-3-hydroxynaphthalen-1-yl)-8-fluoropyrido[4,3-d]pyrimidin-4-yl)-6-azaspiro[3.5]nonan-2-ol] |  | 
6 | 9 nM | 2 nM | 89% | 82% | 112 nM | 85% | 84% | 88% | 45 nM | 83 nM | < 2 nM | 3 nM | 2780 nM | 89% | 39 nM | 85 nM | CCc1c(F)ccc2cc(O)cc(-c3ncc4c(N5CCC[C@@](C)(O)C5)nc(OC[C@@]56CCCN5[C@H](COC(=O)NC)CC6)nc4c3F)c12 [Example 706, ((3S,7aS)-7a-(((7-(8-ethyl-7-fluoro-3-hydroxynaphthalen-1-yl)-8-fluoro-4-((R)-3-hydroxy-3-methylpiperidin-1-yl)pyrido[4,3-d]pyrimidin-2-yl)oxy)methyl)hexahydro-1H-pyrrolizin-3-yl)methyl methylcarbamate] |  | 
7 | 3 nM | < 2 nM | 94% | 90% | 47 nM | 92% | 92% | 92% | 22 nM | 44 nM | < 2 nM | < 2 nM | 1820 nM | 93% | 30 nM | 84 nM | CCNC(=O)OC[C@@H]1CC[C@]2(COc3nc(N4CCC[C@@](C)(O)C4)c4cnc(-c5cc(O)cc6ccc(F)c(CC)c56)c(F)c4n3)CCCN12 [Example 717, ((3S,7aS)-7a-(((7-(8-ethyl-7-fluoro-3-hydroxynaphthalen-1-yl)-8-fluoro-4-((R)-3-hydroxy-3-methylpiperidin-1-yl)pyrido[4,3-d]pyrimidin-2-yl)oxy)methyl)hexahydro-1H-pyrrolizin-3-yl)methyl ethylcarbamate] |  | 
8 | 2 nM | < 2 nM | 95% | 94% | 37 nM | 94% | 94% | 96% | 17 nM | 43 nM | < 2 nM | < 2 nM | 1100 nM | 96% | 29 nM | 58 nM | CCc1c(F)ccc2cc(O)cc(-c3ncc4c(N5CCC[C@@](C)(O)C5)nc(OC[C@@]56CCCN5[C@H](COC(=O)NC(C)C)CC6)nc4c3F)c12 [Example 718, ((3S,7aS)-7a-(((7-(8-ethyl-7-fluoro-3-hydroxynaphthalen-1-yl)-8-fluoro-4-((R)-3-hydroxy-3-methylpiperidin-1-yl)pyrido[4,3-d]pyrimidin-2-yl)oxy)methyl)hexahydro-1H-pyrrolizin-3-yl)methyl isopropylcarbamate] |  | 
